Earlier results on one compound are cited in patent publication US9579404B2, “Lanthanoid complex capsule and particle contrast agents, methods of making and using thereof” (New York University, priority 2011, dated 2017).

Each structure is given as a SMILES string.

For the series the following is noted: in H2O at 9.4 T (400 MHz), 25° C.; from Siddiqui et al. 2009.

In the case of `O=C([O-])CN(CCN(CC(=O)[O-])CC(=O)[O-])CCN(CC(=O)[O-])CC(=O)[O-].[Gd+3]` [Gd[DTPA]^2−, gadolinium diethylenetriamine-N,N,N′,N″N″-pentaacetate], the “Relaxivity (r1) per Gd” value is recorded as 4.6^a s^−1mM^−1.
